# In patent publication US9957271B2, “Substituted bicyclic aza-heterocycles and analogues as sirtuin modulators” (GlaxoSmithKline, LLC, priority 2012, dated 2018):
# Like-named read-outs stand apart in the source and are kept apart here.
# Molecular target: T1, SIRT1 (Homo sapiens, UniProt Q96EB6)
# T1 sequence (Q96EB6 1-747): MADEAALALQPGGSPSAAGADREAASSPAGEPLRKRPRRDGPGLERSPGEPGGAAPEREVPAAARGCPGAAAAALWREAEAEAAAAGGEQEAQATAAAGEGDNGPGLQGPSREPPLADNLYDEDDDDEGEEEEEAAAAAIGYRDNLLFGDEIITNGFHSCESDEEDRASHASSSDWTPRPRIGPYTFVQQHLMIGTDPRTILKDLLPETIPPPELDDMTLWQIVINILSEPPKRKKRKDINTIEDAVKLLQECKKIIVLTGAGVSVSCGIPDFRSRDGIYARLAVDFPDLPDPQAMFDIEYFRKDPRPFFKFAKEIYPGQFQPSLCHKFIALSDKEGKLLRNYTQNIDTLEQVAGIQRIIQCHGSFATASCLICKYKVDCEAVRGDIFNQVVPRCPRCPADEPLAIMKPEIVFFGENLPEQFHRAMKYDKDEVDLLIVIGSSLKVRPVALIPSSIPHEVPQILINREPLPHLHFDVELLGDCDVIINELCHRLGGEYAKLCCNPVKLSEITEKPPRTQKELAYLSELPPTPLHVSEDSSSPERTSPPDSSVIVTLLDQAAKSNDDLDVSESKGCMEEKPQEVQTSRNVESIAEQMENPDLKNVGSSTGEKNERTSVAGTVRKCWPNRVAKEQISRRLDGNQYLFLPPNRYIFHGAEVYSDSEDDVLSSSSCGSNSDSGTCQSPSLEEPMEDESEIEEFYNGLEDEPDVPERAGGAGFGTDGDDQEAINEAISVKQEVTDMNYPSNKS
# Test: TAMRA based mass spectrometry assay of SIRT1 activity
# Assay type: biochemical
# Conditions: for Emax: read-out: TAMRA % Fold Act
# Summary of the method: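 Deacetylation of a biotinylated, TAMRA-tagged p53-based peptide (0.5 μM) by 10 nM His-tagged SIRT1 with 120 μM βNAD+, 25 °C for 25 min, pH 8 Tris-acetate buffer, across a compound concentration range. Quenched by formic acid and read by mass spec as product peptide or OAADPR; activity relative to DMSO reactions, nicotinamide defining maximal inhibition.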
# [1] = TAMRA peptide substrate, concentration giving 150% activation of SIRT1
# [2] = TAMRA peptide substrate, percent maximum fold activation
# [3] = TAMRA assay, concentration giving 150% activation of SIRT1
# [4] = TAMRA assay, percent maximum fold activation
# [5] = concentration of test compound giving 150% activation of SIRT1, TAMRA peptide substrate
# [6] = percent maximum fold activation of SIRT1, TAMRA peptide substrate
TAMRA EC1.5 (μM) [3],Emax [4] [%],SMILES,other results
–,–,O=C(Nc1ccncn1)c1ncn2ccc(-c3ccccc3C(F)(F)F)nc12 [Compound 452],TAMRA EC1.5 [1]: A (EC1.5<1 μM); Emax [2]: ≥ 350%
B (EC1.5 1-25 μM),≥ 350,Cc1nc2ccc(-c3ccccc3C(F)(F)F)nn2c1NC(=O)c1ncccn1 [Compound 378],–
A (EC1.5<1 μM),≥ 350,"O=C(Nc1ccccn1)c1cnn2ccc(-c3ccccc3C(F)(F)F)nc12 [Compound 265, N-(pyridin-2-yl)-5-(2-(trifluoromethyl)phenyl)pyrazolo[1,5-a]pyrimidine-3-carboxamide]",–
–,–,Cc1cc(OCC(O)CO)nc(NC(=O)c2cnc3ccc(-c4ccccc4C(F)(F)F)nn23)n1 (centres unmarked) [Compound 76],TAMRA EC1.5 (μM) [5]: B (EC1.5 1-25 μM); Emax [6]: ≥ 350%
A (EC1.5<1 μM),≥ 350,Cc1nc2c(C)cc(-c3ccccc3C(F)(F)F)nn2c1C(=O)Nc1ccnc(C2CC2)n1 [Compound 732],–
–,–,Cc1cc(-c2ccccc2C(F)(F)F)nn2c(NC(=O)c3nccs3)cnc12 [Compound 414],TAMRA EC1.5 [1]: A (EC1.5<1 μM); Emax [2]: ≥ 350%
–,–,O=C(Nc1cnc2ccc(-c3ccccc3C(F)(F)F)nn12)c1cccc(CN2CCOCC2)n1 [Compound 81],TAMRA EC1.5 (μM) [5]: A (EC1.5<1 μM); Emax [6]: ≥ 350%
–,–,O=C(Nc1cnc2ccc(-c3ccccc3C(F)(F)F)nn12)c1cccc(N2CCOCC2)n1 [Compound 82],TAMRA EC1.5 (μM) [5]: A (EC1.5<1 μM); Emax [6]: ≥ 350%
A (EC1.5<1 μM),≥ 350,COc1cccc(C(=O)Nc2cnn3ccc(-c4ccccc4OC(F)(F)F)nc23)n1 [Compound 751],–
A (EC1.5<1 μM),≥ 350,O=C(Nc1cnccn1)c1cnc2ccc(-c3ccccc3OC(F)(F)F)nn12 [Compound 362],–
–,–,O=C(Nc1cccc(N2CCCC2)n1)c1cnc2ccc(-c3ccccc3C(F)(F)F)nn12 [Compound 22],TAMRA EC1.5 (μM) [5]: A (EC1.5<1 μM); Emax [6]: ≥ 350%
B (EC1.5 1-25 μM),≥ 350,Cc1nc2ccc(-c3ccccc3Cl)nn2c1C(=O)Nc1cccnn1 [Compound 715],–
–,–,Cc1cc(-c2ccccc2C(F)(F)F)nn2c(NC(=O)c3cccc(N4CCC4)n3)cnc12 [Compound 426],TAMRA EC1.5 [1]: A (EC1.5<1 μM); Emax [2]: ≥ 350%
A (EC1.5<1 μM),≥ 350,CC(C)c1nccc(C(=O)Nc2cnc3ccc(-c4ccccc4C(F)(F)F)nn23)n1 [Compound 274],–
–,–,COCCn1cc(NC(=O)c2cnc3ccc(-c4ccccc4C(F)(F)F)nn23)ccc1=O [Compound 156],TAMRA EC1.5 (μM) [5]: B (EC1.5 1-25 μM); Emax [6]: < 350%
C (EC1.5>25 μM),< 350,O=C(Nc1cccc(OCC(F)(F)F)n1)c1cnc2ccc(-c3ccccc3Cl)nn12 [Compound 262],–
–,–,O=C(Nc1ccnc(N2CCC2)c1)c1cnc2ccc(-c3cccc(F)c3Cl)nn12 [Compound 179],TAMRA EC1.5 (μM) [5]: A (EC1.5<1 μM); Emax [6]: < 350%
A (EC1.5<1 μM),≥ 350,Cc1nc2ccc(-c3ccccc3C(F)(F)F)nn2c1NC(=O)c1cccc(N2CCOCC2)n1 [Compound 382],–
B (EC1.5 1-25 μM),< 350,Cc1cc(C)c(NC(=O)c2cnn3ccc(-c4ccccc4C(F)(F)F)nc23)cn1 [Compound 687],–
A (EC1.5<1 μM),≥ 350,O=C(Nc1ccc(N2CCOCC2)cn1)c1cnc2ccc(-c3ccccc3C(F)(F)F)nn12 [Compound 199],–
–,–,Cn1cc(-c2ccc3ncc(C(=O)Nc4ccnc(N5CCCC5)c4)n3n2)cn1 [Compound 57],TAMRA EC1.5 (μM) [5]: C (EC1.5>25 μM); Emax [6]: < 350%
–,–,O=C(Nc1cnn2ccc(-c3ccccc3OC(F)(F)F)nc12)c1cccnc1 [Compound 582],TAMRA EC1.5 [1]: B (EC1.5 1-25 μM); Emax [2]: < 350%
–,–,Cc1nn2ccc(-c3ccccc3C(F)(F)F)nc2c1C(=O)Nc1cccc(CN2CCOCC2)n1 [Compound 550],TAMRA EC1.5 [1]: A (EC1.5<1 μM); Emax [2]: ≥ 350%
–,–,Cc1nc2c(C)cc(-c3ccccc3C(F)(F)F)nn2c1C(=O)Nc1ccc(F)cn1 [Compound 474],TAMRA EC1.5 [1]: A (EC1.5<1 μM); Emax [2]: ≥ 350%
–,–,Cc1cc(NC(=O)c2cnn3ccc(-c4ccccc4C(F)(F)F)nc23)cc(C)n1 [Compound 504],TAMRA EC1.5 [1]: A (EC1.5<1 μM); Emax [2]: ≥ 350%

TAMRA EC1.5 (μM) [3],Emax [4] [%],SMILES,other results
–,–,Cc1cc(NC(=O)c2c(C)nc3c(C)cc(-c4ccccc4C(F)(F)F)nn23)ccn1 [Compound 459],TAMRA EC1.5 [1]: A (EC1.5<1 μM); Emax [2]: ≥ 350%
B (EC1.5 1-25 μM),< 350,Cc1cc(NC(=O)c2c(O)nc3ccc(-c4ccccc4C(F)(F)F)nn23)ccn1 [Compound 366],–
A (EC1.5<1 μM),≥ 350,Cc1ccnc(NC(=O)c2cnc3ccc(-c4ccccc4OC[C@H](O)CO)nn23)c1 [Compound 811],–
A (EC1.5<1 μM),≥ 350,Cc1cc(C(=O)Nc2cnn3ccc(-c4ccccc4C(F)(F)F)nc23)nc(C)n1 [Compound 795],–
–,–,COc1cc(C)nc(NC(=O)c2cnc3ccc(-c4ccccc4C(F)(F)F)nn23)n1 [Compound 174],TAMRA EC1.5 (μM) [5]: A (EC1.5<1 μM); Emax [6]: ≥ 350%
–,–,O=C(Nc1cccc(N2CCOCC2)n1)c1cnc2ccc(-c3cccc(Cl)c3F)nn12 [Compound 158],TAMRA EC1.5 (μM) [5]: A (EC1.5<1 μM); Emax [6]: ≥ 350%
A (EC1.5<1 μM),≥ 350,Cc1nc(C(=O)Nc2cnc3ccc(-c4ccccc4Cl)nn23)cs1 [Compound 292],–
A (EC1.5<1 μM),≥ 350,Cc1ccc(NC(=O)c2c(C)nc3ccc(-c4ccccc4Br)nn23)nn1 [Compound 764],–
–,–,O=C(Nc1ncn2ccc(-c3ccccc3C(F)(F)F)nc12)c1cccc(N2CCOCC2)n1 [Compound 456],TAMRA EC1.5 [1]: A (EC1.5<1 μM); Emax [2]: ≥ 350%
B (EC1.5 1-25 μM),≥ 350,O=C(Nc1cnn2ccc(-c3ccccc3C(F)(F)F)nc12)c1cnccn1 [Compound 253],–
–,–,O=C(Nc1cccc(N2CCOCC2)n1)c1cnc2ccc(-c3ccccc3C(F)(F)F)nn12 [Compound 21],TAMRA EC1.5 (μM) [5]: A (EC1.5<1 μM); Emax [6]: ≥ 350%
A (EC1.5<1 μM),≥ 350,Cc1cc(OCC(F)(F)F)nc(NC(=O)c2cnc3ccc(-c4ccccc4C(F)(F)F)nn23)n1 [Compound 310],–
B (EC1.5 1-25 μM),≥ 350,O=C(Nc1cnn2ccc(-c3ccccc3OC(F)(F)F)nc12)c1cnc(O)cn1 [Compound 735],–
–,–,O=C(Nc1ncc(F)cc1F)c1cnc2ccc(-c3ccccc3C(F)(F)F)nn12 [Compound 111],TAMRA EC1.5 (μM) [5]: B (EC1.5 1-25 μM); Emax [6]: < 350%
A (EC1.5<1 μM),≥ 350,Cc1cc(C)nc(NC(=O)c2cnc3ccc(-c4ccccc4OCC(O)CO)nn23)c1 (centres unmarked) [Compound 371],–
A (EC1.5<1 μM),≥ 350,Cc1cc(-c2ccccc2C(F)(F)F)nn2c(C(=O)Nc3ccnc(O[C@H]4CCOC4)n3)cnc12 [Compound 601],–
A (EC1.5<1 μM),≥ 350,O=C(Nc1cnc2ccc(-c3ccccc3F)nn12)c1cccc(N2CCOCC2)n1 [Compound 301],–
C (EC1.5>25 μM),< 350,Cc1nc2ccc(-c3ccccc3Cl)nn2c1NC(=O)c1ncccn1 [Compound 349],–
A (EC1.5<1 μM),≥ 350,Cc1nc(NC(=O)c2cnc3ccc(-c4ccccc4C(F)(F)F)nn23)sc1C [Compound 237],–
B (EC1.5 1-25 μM),≥ 350,O=C(Nc1nccc(OCC(O)CO)n1)c1cnc2ccc(-c3ccccc3C(F)(F)F)nn12 (centres unmarked) [Compound 226],–
–,–,COc1nccc(NC(=O)c2c(C)nc3ccc(-c4ccccc4OC(F)(F)F)nn23)n1 [Compound 477],TAMRA EC1.5 [1]: A (EC1.5<1 μM); Emax [2]: ≥ 350%
A (EC1.5<1 μM),≥ 350,Cc1ccc(NC(=O)c2c(C)nn3ccc(-c4ccccc4C(F)(F)F)nc23)cn1 [Compound 637],–
A (EC1.5<1 μM),< 350,Cc1ncccc1NC(=O)c1c(C)nn2ccc(-c3ccccc3C(F)(F)F)nc12 [Compound 699],–
–,–,"Cc1cc(-c2ccccc2C(F)(F)F)nn2c(C(=O)Nc3ccncc3)cnc12 [Compound 193, 8-methyl-N-(pyridin-4-yl)-6-(2-(trifluoromethyl)phenyl)imidazo[1,2-b]pyridazine-3-carboxamide]",TAMRA EC1.5 (μM) [5]: A (EC1.5<1 μM); Emax [6]: ≥ 350%
